Test results: patent publication US5672715A, “Herbicidal substituted 3-aryl-pyrazoles” (Monsanto Company, priority 1995, dated 1997)
“And” between values parts separate entries of the source, which are not always exact repeats. Equal entries are not always repeated.

Assays:
Format in all cases: in vivo
[1] = test system: Barnyardgrass; test: pre-emergence herbicide test; details: Echinochloa crus-galli, pre-emergence, 0.25 lb/A; read-out: % plant inhibition
Summary of the method: (§1)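 Steps: compact topsoil in pan; place seeds; level-fill with cover soil; add a known amount of compound before or after covering; keep pans in greenhouse, bottom-watering as needed; rate % inhibition at about 14 days.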

[2] = test system: Bedstraw Catchweed; test: pre-emergence herbicide test; details: Galium aparine, pre-emergence, 0.25 lb/A; read-out: % plant inhibition
Summary of the method: as §1

[3] = test system: Birdseye Speedwell; test: pre-emergence herbicide test; details: pre-emergence, 0.25 lb/A; read-out: % plant inhibition
Summary of the method: as §1

[4] = test system: Blackgrass; test: pre-emergence herbicide test; details: Alopecurus myosuroides, pre-emergence, 0.25 lb/A; read-out: % plant inhibition
Summary of the method: as §1

[5] = test system: Cocklebur; test: pre-emergence herbicide test; details: 0.25 lb/A; for inhibition at 280.212 g/ha: Xanthium strumarium, pre-emergence, read-out: % plant inhibition
Summary of the method: as §1

[6] = test system: Common Chickweed; test: pre-emergence herbicide test; details: pre-emergence, 0.25 lb/A; read-out: % plant inhibition
Summary of the method: as §1

[7] = test system: Corn; test: pre-emergence herbicide test; details: Zea mays, pre-emergence, 0.25 lb/A; read-out: % plant inhibition
Summary of the method: as §1

[8] = test system: Downy Brome; test: pre-emergence herbicide test; details: Bromus tectorum, pre-emergence, 0.25 lb/A; read-out: % plant inhibition
Summary of the method: as §1

[9] = test system: Giant Foxtail; test: pre-emergence herbicide test; details: 0.25 lb/A; for inhibition at 280.212 g/ha: Setaria faberi, pre-emergence, read-out: % plant inhibition
Summary of the method: as §1

[10] = test system: Green Foxtail; test: pre-emergence herbicide test; details: Setaria viridis, pre-emergence; 0.25 lb/A; read-out: % plant inhibition
Summary of the method: as §1

[11] = test system: Morning Glory; test: pre-emergence herbicide test; details: 0.25 lb/A; for inhibition at 280.212 g/ha: Ipomoea, pre-emergence, read-out: % plant inhibition
Summary of the method: as §1

[12] = test system: Rape; test: pre-emergence herbicide test; details: pre-emergence, 0.25 lb/A; read-out: % plant inhibition
Summary of the method: as §1

[13] = test system: Seedling Johnsongrass; test: pre-emergence herbicide test; details: Sorghum halepense, pre-emergence, 0.25 lb/A; read-out: % plant inhibition
Summary of the method: as §1

[14] = test system: Soybean; test: pre-emergence herbicide test; details: Glycine max, pre-emergence, 0.25 lb/A; read-out: % plant inhibition
Summary of the method: as §1

[15] = test system: Velvetleaf; test: pre-emergence herbicide test; details: Abutilon theophrasti, pre-emergence, 0.25 lb/A; read-out: % plant inhibition
Summary of the method: as §1

[16] = test system: Wheat; test: pre-emergence herbicide test; details: Triticum aestivum, pre-emergence, 0.25 lb/A; read-out: % plant inhibition
Summary of the method: as §1

[17] = test system: Wild Oats; test: pre-emergence herbicide test; details: Avena fatua, pre-emergence, 0.25 lb/A; read-out: % plant inhibition
Summary of the method: as §1

[18] = test system: Barnyardgrass; test: post-emergence herbicide test; details: Echinochloa crus-galli, post-emergence, 0.25 lb/A; read-out: % plant inhibition
Summary of the method: (§2)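 Greenhouse plants grown from seeds in topsoil were treated two to three weeks after sowing with a spray solution or suspension of test chemical with about 0.4% by volume emulsifier, applied at 1870 L/Ha and 170.3 kPa. Percent inhibition per species was the endpoint.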

[19] = test system: Bedstraw Catchweed; test: post-emergence herbicide test; details: Galium aparine, post-emergence, 0.25 lb/A; read-out: % plant inhibition
Summary of the method: as §2

[20] = test system: Birdseye Speedwell; test: post-emergence herbicide test; details: post-emergence, 0.25 lb/A; read-out: % plant inhibition
Summary of the method: as §2

[21] = test system: Blackgrass; test: post-emergence herbicide test; details: Alopecurus myosuroides, post-emergence, 0.25 lb/A; read-out: % plant inhibition
Summary of the method: as §2

[22] = test system: Cocklebur; test: post-emergence herbicide test; details: Xanthium strumarium, post-emergence, 0.25 lb/A; read-out: % plant inhibition
Summary of the method: as §2

[23] = test system: Common Chickweed; test: post-emergence herbicide test; details: post-emergence, 0.25 lb/A; read-out: % plant inhibition
Summary of the method: as §2

[24] = test system: Corn; test: post-emergence herbicide test; details: Zea mays, post-emergence, 0.25 lb/A; read-out: % plant inhibition
Summary of the method: as §2

[25] = test system: Downy Brome; test: post-emergence herbicide test; details: Bromus tectorum, post-emergence, 0.25 lb/A; read-out: % plant inhibition
Summary of the method: as §2

[26] = test system: Giant Foxtail; test: post-emergence herbicide test; details: Setaria faberi, post-emergence, 0.25 lb/A; read-out: % plant inhibition
Summary of the method: as §2

[27] = test system: Green Foxtail; test: post-emergence herbicide test; details: Setaria viridis, post-emergence, 0.25 lb/A; read-out: % plant inhibition
Summary of the method: as §2

[28] = test system: Morning Glory; test: post-emergence herbicide test; details: Ipomoea, post-emergence, 0.25 lb/A; read-out: % plant inhibition
Summary of the method: as §2

[29] = test system: Rape; test: post-emergence herbicide test; details: post-emergence, 0.25 lb/A; read-out: % plant inhibition
Summary of the method: as §2

[30] = test system: Seedling Johnsongrass; test: post-emergence herbicide test; details: Sorghum halepense, post-emergence, 0.25 lb/A; read-out: % plant inhibition
Summary of the method: as §2

[31] = test system: Soybean; test: post-emergence herbicide test; details: Glycine max, post-emergence, 0.25 lb/A; read-out: % plant inhibition
Summary of the method: as §2

[32] = test system: Velvetleaf; test: post-emergence herbicide test; details: Abutilon theophrasti, post-emergence, 0.25 lb/A; read-out: % plant inhibition
Summary of the method: as §2

[33] = test system: Wheat; test: post-emergence herbicide test; details: Triticum aestivum, post-emergence, 0.25 lb/A; read-out: % plant inhibition
Summary of the method: as §2

[34] = test system: Wild Oats; test: post-emergence herbicide test; details: Avena fatua, post-emergence, 0.25 lb/A; read-out: % plant inhibition
Summary of the method: as §2

SMILES | inhibition at 280.212 g/ha [1] [%] | inhibition at 280.212 g/ha [2] [%] | inhibition at 280.212 g/ha [3] [%] | inhibition at 280.212 g/ha [4] [%] | inhibition at 280.212 g/ha [5] [%] | inhibition at 280.212 g/ha [6] [%] | inhibition at 280.212 g/ha [8] [%] | inhibition at 280.212 g/ha [9] [%] | inhibition at 280.212 g/ha [10] [%] | inhibition at 280.212 g/ha [11] [%] | inhibition at 280.212 g/ha [12] [%] | inhibition at 280.212 g/ha [13] [%] | inhibition at 280.212 g/ha [15] [%] | inhibition at 280.212 g/ha [16] [%] | inhibition at 280.212 g/ha [17] [%] | inhibition at 280.212 g/ha [18] [%] | inhibition at 280.212 g/ha [19] [%] | inhibition at 280.212 g/ha [20] [%] | inhibition at 280.212 g/ha [21] [%] | inhibition at 280.212 g/ha [22] [%] | further results
Cn1nc(-c2cc(C(=O)O)c(Cl)cc2F)c(C=O)c1C(F)(F)F [Compound 3, 2-Chloro-4-fluoro-5-[4-formyl-1-methyl-5-(trifluoromethyl)-1H-pyrazol-3-yl]benzoic acid] | 15 | 5 | 0 | 5 | 5 | 0 | 0 | 5 | 30 | 60 | 5 | 25 | 25 | 0 | 5 | 0 | 15 | 75 | 0 | 65 | inhibition at 280.212 g/ha [7]: 0%; inhibition at 280.212 g/ha [14]: 20%; inhibition at 280.212 g/ha [23]: 25%; inhibition at 280.212 g/ha [24]: 2%; inhibition at 280.212 g/ha [25]: 0%; inhibition at 280.212 g/ha [26]: 0%; inhibition at 280.212 g/ha [27]: 10%; inhibition at 280.212 g/ha [28]: 25%; inhibition at 280.212 g/ha [29]: 10%; inhibition at 280.212 g/ha [30]: 0%; inhibition at 280.212 g/ha [31]: 15%; inhibition at 280.212 g/ha [32]: 85%; inhibition at 280.212 g/ha [33]: 8%; inhibition at 280.212 g/ha [34]: 5%
CCC(C)OC(=O)c1cc(-c2nn(C)c(C(F)(F)F)c2C)c(F)cc1Cl (stereo not shown) [Compound 58] | 100 | 95 | 100 | 95 | 75 | 100 | 100 | 100 | 100 | 100 | 50 | 100 | 100 | 5 | 75 | 85 | 90 | 100 | 80 | 99 | inhibition at 280.212 g/ha [7]: 20%; inhibition at 280.212 g/ha [14]: 25%; inhibition at 280.212 g/ha [23]: 95%; inhibition at 280.212 g/ha [24]: 20%; inhibition at 280.212 g/ha [25]: 85%; inhibition at 280.212 g/ha [26]: 95%; inhibition at 280.212 g/ha [27]: 85%; inhibition at 280.212 g/ha [28]: 100%; inhibition at 280.212 g/ha [29]: 65%; inhibition at 280.212 g/ha [30]: 95%; inhibition at 280.212 g/ha [31]: 85%; inhibition at 280.212 g/ha [32]: 100%; inhibition at 280.212 g/ha [33]: 18%; inhibition at 280.212 g/ha [34]: 85%
CCOC(=O)c1cc(-c2nn(C)c(C(F)(F)F)c2C)c(F)cc1Cl [Compound 26, 2-chloro-5-[1,4-dimethyl-5-(trifluoromethyl)-1H-pyrazol-3-yl]-4-fluorobenzoic acid ethyl ester] | 100 | 50 | 100 | 95 | 85 | 100 | 55 | 99 | 100 | 90 | 40 | 100 | 100 | 0 | 65 | 95 | 60 | 85 | 35 | 85 | % plant inhibition [5]: 93% and 92%; % plant inhibition [9]: 100%; % plant inhibition [11]: 97% and 98%; inhibition at 280.212 g/ha [23]: 85%; inhibition at 280.212 g/ha [24]: 25%; inhibition at 280.212 g/ha [25]: 45%; inhibition at 280.212 g/ha [26]: 45%; inhibition at 280.212 g/ha [27]: 60%; inhibition at 280.212 g/ha [28]: 50%; inhibition at 280.212 g/ha [29]: 60%; inhibition at 280.212 g/ha [30]: 50%; inhibition at 280.212 g/ha [31]: 75%; inhibition at 280.212 g/ha [32]: 99%; inhibition at 280.212 g/ha [33]: 17%; inhibition at 280.212 g/ha [34]: 35%
